Patent US20080249178A1, “MAGNESIUM COMPOSITIONS AND USES THEREOF FOR INCREASING LIFESPAN” (priority 2007, published 2008)

Columns and labels:
[1] = Magnesium absorption rate in rats (metabolic cages, urine and feces magnesium by ICP-AES); details: higher dosage compositions; magnesium chloride in water, magnesium gluconate in skim milk or water comprising 5 weight percent lactose
Method: Fifty 3-month old, male Sprague Dawley (SD) rats were divided into five groups of ten rats. Rats of this age and older are considered adult. Each of the rats was placed in a separate metabolic cage equipped with urine- and feces-collecting wells. All of the rats were maintained in a temperature-controlled room (22° C. to 25° C.) with a dark period from 08:00 pm to 08:00 am daily. From day 1 through day 3, each rat was fed daily 15 g of magnesium-free food and de-ionized water. […] The medium was skim milk for Composition 1 and Group 1, milk prepared from powdered milk, by diluting the powdered milk with water to obtain a composition like that of skim milk, for Composition 2 and Group 2, 1% milk cream in water for Composition 3 and Group 3, water comprising 5 weight percent lactose for Composition 4 and Group 4, and water for the Control Composition and Control Group. […]
From day 4 through day 10, urine from each rat was collected daily. The collected urine from each rat was then pooled together and the total volume of the pooled urine from each rat was recorded. The pooled urine from each rat, in an amount of […], was analyzed for magnesium content using an inductively coupled plasma-atomic emission spectrometer (ICP-AES). […] The pooled feces from each rat, in an amount of 0.5 g, were analyzed for magnesium content using an ICP-AES. […]

Sprague Dawley (SD) rats = details: aging rats, 6 mg/kg MgCl2
Method: Twenty 2-month old, male Sprague Dawley (SD) rats were housed in a temperature-controlled room (22° C. to 25° C.) with a dark period from 08:00 pm to 08:00 am daily. […] Over 7 days before the training and trial period began, each rat was handled and habituated to the maze and to Kellogg's Froot Loop cereal.
Each rat underwent a test of one trial, followed by an interval of 10-minutes, followed by another trial, and so on, for a total of 6 trials in one day. In each trial, each rat went through a sample run in the maze, followed by an interval of 15 seconds, followed by a choice run in the maze. In the sample run, the subject rat was forced to go to the left or to the right by the presence of a block, according to a pseudorandom sequence (with an equal number of left turns and right turns, and no more than two consecutive turns in the same direction). As a reward, Froot Loop cereal was available in the food well at the end of the run, regardless of the direction that was taken by virtue of the block. In the choice run, the block that had been present in the preceding sample run was removed, and the rat was allowed to choose to go to the left or to the right. As a reward, Froot Loop cereal was available in the food well at the end of the run, only when the rat had made a “correct choice” by choosing the direction opposite that taken in the preceding sample run. […]
On the first day (designated day 0) of the feeding of the two groups, as just described, each rat underwent a preliminary test of one trial, followed by an interval of 10 minutes, followed by another trial, and so on, for a total of 4 trials in one day. […] In this preliminary test, the choice accuracy level, or ratio of correct choices made, co, to the number of number of trials in the test, no, was determined for each rat. […]
Three groups of animals (young, aging, and magnesium-treated aging rats) were used. […] Spatial working memory was assessed using a T-maze non-matching-to-place task. […] Spatial working memory was first assessed on an elevated T-maze. […]

Sprague-Dawley rats = assay: Novel object recognition test in rats; format: in vivo
Method: In this example, the effect of magnesium supplementation on recognition memory was tested. Three groups of rats were used in these experiments: 1) young rats (three months old); aging rats (12-14 months old), and; 3) magnesium-treated aging rats (12-14 months old, diet supplemented with 6 mg/kg MgCl2 from 8 months of age). We used experimentally naive, female, Sprague-Dawley young […], aging (12-14 month old) and […] rats (Charles River) at the beginning of the behavior experiments. They were housed two per cage with continuous access to food and water under a 12:12 light-dark cycle, with light onset at 8:00 a.m. […] All experiments involving animals were approved by the Massachusetts Institute of Technology's and Tsinghua University Committees on Animal Care.
The three groups of rats were tested for recognition memory using an object recognition test with a single exposure to the object during training. The task is based on the natural tendency of rodents to explore new objects and tests the animals' memory capacity for distinguishing novel versus familiar objects.
Briefly, the rats were first individually habituated to the personnel and then to open-field arena during 2 weeks. […] The retention intervals were 10 min and 24 hours. Objects were cleaned thoroughly between trials with 20% ethanol solution to ensure the absence of olfactory cues. The particular objects for a given trial were randomly determined, but each object was used for only one trial per rat. Memory of the familiar object is associated with increased exploration of the new object and an exploration index (% correct) is calculated as new object inspection time/30.
In this example, the effect of magnesium supplementation on memory consolidation was studied. […]
Briefly, the rats were first individually habituated to the personnel and then to open-field arena during 2 weeks. […] The particular objects for a given trial were randomly determined, but each object was used for only one trial per rat. […]

[2] = diabetic patients, nearly 1 g of magnesium daily for 1 month; cited from earlier work
[3] = tested on: young (9-month old) and aged (25-month old) rats; details: food containing 2% magnesium oxide for 8 days, cited from earlier work
[4] = tested on: mice that were genetically altered to present symptoms of Alzheimer's disease (AD); assay: Modified Morris water maze in AD mice; format: in vivo; details: AD mice aged 13 months
Method: Another group, the control group, of 10 mice that were genetically altered to present symptoms of AD were fed a Control Diet, a diet of normal solid food and water, for 30 days.
The pool used was a pool of water in a circular metal tank (150 cm in diameter and 50 cm in depth) having a water height of 30 cm and a water temperature that was maintained at ˜22° C. The pool was placed in a moderately lit area and surrounded by a black curtain. An acrylic platform (15 cm in diameter) was placed 2 cm below the surface of the water in the middle of one quadrant of the pool, equidistant from the center and the edge of the pool. Outside the pool, a cue was placed so as to be visible to a mouse in the maze, allowing a mouse to use it as a landmark for spatial orientation. The cue remained unchanged throughout the test period.
On the first day of the training and testing period, the water in the pool was transparent, such that the platform was visible. Each mouse was trained to swim towards the platform and to stand on the platform so as not to be submerged in the pool. […] The amount of time the mouse took to find the platform, referred to as “escape latency,” was recorded for each trial.
On the second day of the training and testing period, a small quantity of milk was added to the water in the pool, such that the pool was opaque and the platform was no longer visible. […]

SMILES: [Cl-].[Cl-].[Mg+2] [MgCl2, magnesium chloride]
- magnesium absorption rate at relatively high magnesium dosage [1]: less desirable
- spatial working memory performance with increased delay (Sprague Dawley (SD) rats; 2 and 5 min delays (p<0.05)): significantly enhanced the performance of the aging rats
- percentage of correct choices during training (Sprague Dawley (SD) rats; 15 sec delay (p<0.05)): performed significantly better from their first trials
- asymptotic choice accuracy level (Sprague Dawley (SD) rats; after 8 days of training): 94%
- novel object exploration preference (Sprague-Dawley rats; aging rats (12-14 months old), 6 mg/kg MgCl2 from 8 months of age, single exposure, 10 minute retention interval (P<0.0001)): preferentially explored the novel object to the same extent as young rats
- ability to distinguish novel versus familiar objects (Sprague-Dawley rats; aging rats, 6 mg/kg MgCl2, single exposure, after 24 hours): lose there ability to distinguish novel versus familiar objects
- preference for the novel object (Sprague-Dawley rats; aging rats, 6 mg/kg MgCl2, two training sessions, 24-hour retention interval): retained a high level of preference

SMILES: [O]=[Mg] [magnesium oxide]
- increase of serum magnesium level [2]: about 10%
- metabolic control [2]: only minor improvement in metabolic control
- side-effect [3]: diarrhea and weight loss
- cognitive function ([3]; gain transient): some sign of improvement of cognitive function

SMILES: CC12CC3CC(C)(C1)CC(N)(C3)C2 [memantine]
- reduction of the effects of AD on learning capacity, compared with aricept [4]: better at reducing the effects of AD on learning capacity than aricept
